According to patent publication US8337851B2, “Methods of monitoring the efficacy of anti-CD40 antibodies in treating a subject for a CD40-expressing cancer” (Novartis AG, priority 2005, dated 2012):

Assays:
IM-9 cells = test: ADCC, Calcein release with human NK cells, IM-9; format: cell-based; settings: NK:target 10 to 1, 4 hours, read-out: ED50 (percent specific lysis)
Method: (§1) Human MM cell lines, KMS-12-BM, IM-9, and ARH-77, were washed 3 times using R2 medium (Pheno red-free RPMI with 2% FBS) and re-suspended in R10 medium (Pheno red-free RPMI with 10% FBS) at the density of 1×10^6/mL. Cells were labeled by adding Calcein AM (final concentration […]) and incubating for 30 minutes at 37° C. in a humidified atmosphere with 5% CO2. Purified human NK cells and Calcein-labeled target cells were mixed in R10 medium at the ratio of 10 to 1 (5×10^4 NK cells and 5×10^3 target cells in […]) and added in U-bottom 96 well plate (Packard's Instrument, Meriden, Conn.). […] 1% NP-40 was added in 3 wells for the maximum cell lysis. Cells were incubated for 4 hours without disturbance at 37° C. in a humidified atmosphere with 5% CO2. The plate was then centrifuged at 300 rpm without brake for 5 minutes. […] supernatant was transferred into a new 96 well plate. The released Calcein in the supernatant was measured in arbitrary fluorescent unit (AFU) at 485 nm excitation and 535 nm emission using Tecan SpectraFluor Plus (Tecan U.S., Inc., Research Triangle, N.C.). The percent of specific lysis was calculated as: 100×(AFU test−AFU spontaneous release)/(AFU maximal release−AFU spontaneous release).
(§2) The ED50 was determined for each cell line by plotting the log of antibody concentration versus the percent specific lysis (see FIG. 16).

ARH-77 cells = test: ADCC, Calcein release with human NK cells, ARH-77; format: cell-based; settings: NK:target 10 to 1, 4 hours, read-out: ED50 (percent specific lysis)
Method: as §1, §2

KMS-12-BM tumor = test: Human KMS-12-BM subcutaneous xenograft model; format: in vivo, SCID mice; settings: 42 days post cell implantation
Method: Female SCID mice were treated with 3Gy irradiation one day prior to implantation of tumor cells. On the day of implantation, cells were prepared at a concentration of 5×10^7 cells/ml in 50% matrigel. Cells were implanted subcutaneously over the right flank at 5×10^6 cells/100 μl/mouse. […] Antibodies were administered intraperitoneally once a week for 4 weeks. Bortezomib was administered intravenously twice a week for two weeks.

normal B cells = test: CD40L-induced cytokine secretion from normal B cells (Meso Scale Discovery); format: cell-based, human; settings: 10 μg/ml, 24 hours
Method: Cells (1×10^5 cells per well) were cultured in a 96-well plate in the presence or absence of CD40L (CD40 transfected, formaldehyde fixed CHO cells, 2×10^5 per well). […] Production of hIL-6, hIL-8, hIL-10, hTNF-α, hGM-CSF, hIL-1b, hIL-12p70, MCP-1, and MIP-1β was measured by Meso Scale Discovery® multi-array system (Meso Scale Discovery, Gaithersburg, Md.).

CHIR-12.12: fully human anti-CD40 monoclonal antibody of the IgG1 isotype from hybridoma cell line 153.8E2.D10.D6.12.12 (ATCC PTA-5543)
EC50 (IM-9 cells): 0.0059 nM
EC50 (ARH-77 cells): 0.0239 nM
tumor volume reduction (KMS-12-BM tumor; 1 mg/kg i.p. once a week for 4 weeks, P>0.05): 32%
tumor volume reduction (KMS-12-BM tumor; 10 mg/kg i.p. once a week for 4 weeks, P<0.05): 35%
cytokine production with antibody alone (agonistic activity) (normal B cells; absence of CD40L): did not produce any of the cytokines above background levels
inhibition of CD40L-induced MCP-1 secretion (normal B cells; Donor 1): 55.3 % inhibition
inhibition of CD40L-induced MIP-1β secretion (normal B cells; Donor 1): 54.4 % inhibition
inhibition of CD40L-induced hIL-6 secretion (normal B cells; Donor 1): 92.2 % inhibition
inhibition of CD40L-induced hIL-8 secretion (normal B cells; Donor 1): 98.2 % inhibition
inhibition of CD40L-induced hIL-10 secretion (normal B cells; Donor 1): 90.5 % inhibition
inhibition of CD40L-induced hTNF-α secretion (normal B cells; Donor 1): 92.8 % inhibition
inhibition of CD40L-induced MIP-1β secretion (normal B cells; Donor 2): 92 % inhibition
inhibition of CD40L-induced hIL-6 secretion (normal B cells; Donor 2): 99.9 % inhibition
inhibition of CD40L-induced hIL-8 secretion (normal B cells; Donor 2): 84.7 % inhibition
inhibition of CD40L-induced hTNF-α secretion (normal B cells; Donor 2): 97.4 % inhibition
inhibition of CD40L-induced MCP-1 secretion (normal B cells; Donor 3): 25.7 % inhibition
inhibition of CD40L-induced MIP-1β secretion (normal B cells; Donor 3): 92.5 % inhibition
inhibition of CD40L-induced hIL-6 secretion (normal B cells; Donor 3): 99.3 % inhibition
inhibition of CD40L-induced hIL-8 secretion (normal B cells; Donor 3): 99.5 % inhibition
inhibition of CD40L-induced hIL-10 secretion (normal B cells; Donor 3): 94.4 % inhibition
inhibition of CD40L-induced hTNF-α secretion (normal B cells; Donor 3): 98.5 % inhibition
